Measurements from EP4635969A1, “NOVEL GLUCOCORTICOID, METHOD FOR PREPARING SAME, AND USE THEREOF” (Tianjin Pharmaceutical Biotechnology Co., Ltd., priority 2022, dated 2024).

Tests used:
[1] = system: dry eye syndrome model New Zealand rabbits; experiment: Dry eye syndrome experiment (benzalkonium chloride model): tear film break-up time; type: in vivo, male New Zealand White rabbits
[2] = system: dry eye syndrome model New Zealand rabbits; experiment: Dry eye syndrome experiment (benzalkonium chloride model): corneal fluorescein sodium staining; type: in vivo, male New Zealand White rabbits
Method: Pharmacological Example 6: Therapeutic Pharmacodynamic Experiment on Dry Eye Syndrome in New Zealand Rabbits
Positive control drug: Fluorometholone Eye Drops (specification: 5 mL/5 mg; Santen Pharmaceutical (CHINA) Co., Ltd.; Lot No.: 1FM6625) was used as the positive control drug and stored at room temperature protected from light until use.
Thirty male New Zealand White rabbits (conventional grade) were prepared. Six rabbits were randomly selected as the blank control group, and the remaining animals were administered 0.1% benzalkonium chloride to the left eye twice daily (morning and evening) , 10 µL/animal each time. […] During the administration, all animals except the blank control group were administered 10 µL of 0.1% benzalkonium chloride to the left eye once daily to maintain dry eye symptoms..
• Test time: D3, D7, D15; • Test animals: All animals were tested before grouping; all enrolled surviving animals were tested after administration; • Test method: 2 µL of 1% Fluorescein sodium was dropped into the conjunctival sac. After 5 s, the excess fluorescein was rinsed with 0.9% normal saline. The conjunctival staining was observed under a slit lamp with cobalt blue diffused light.
The normality and homogeneity of variance were tested by Levene's test. If there was no statistical significance (P > 0.05), one-way analysis of variance (ANOVA) was used for statistical analysis. If ANOVA was statistically significant (P ≤ 0.05), LSD test (parametric method) was used for comparative analysis. If the variance was heterogeneous (P ≤ 0.05), Kruskal-Wallis test was used. If the Kruskal-Wallis test was statistically significant (P ≤ 0.05), Dunnett's test (nonparametric method) was used for comparative analysis.

uveitis model rats = experiment: Anti-uveitis pharmacodynamic experiment (LPS model): ocular pathological score; type: in vivo, male SD rats
Method: Pharmacodynamic Experiment on Anti-Uveitis
Positive control drug: Fluorometholone Eye Drops (specification: 5 mL/5 mg; Santen Pharmaceutical (CHINA) Co., Ltd.; Lot No. : J20180068) was used as the positive control drug and stored at room temperature protected from light until use.
Fifty male SD rats underwent a one-week adaptive feeding period. […] Groups 2 to 5 were used to establish rat uveitis models by single subcutaneous injection of 1 mg/kg LPS (Salmonella; Sigma; Lot No. 0000164114) into the plantar tissue of the hindpaw. Salmonella endotoxin was dissolved in normal saline to prepare an injection solution at a concentration of 2 mg/mL, which was injected subcutaneously at 1 mg/kg into the plantar tissue of one paw of the rats. Group 1 was injected with an equal volume of normal saline.
At the end of the experiment, photos of the rats' eyes were taken using a slit-lamp microscope, and the differences in ocular lesions of rats among groups were compared and analyzed.
(§6) Statistical analysis was performed using SPSS software. Measurement data were expressed as mean ± standard deviation. One-way ANOVA was used for intergroup comparisons. For data with homogeneous variance, LSD test was used; for data with heterogeneous variance, Dunnett-t test was used. A value of P < 0.05 was considered statistically significant.

[3] = system: intraocular pressure of guinea pigs; experiment: Adverse reactions of continuous ocular administration: intraocular pressure; type: in vivo; settings: for Intraocular pressure of guinea pigs (mmHg) D0: D0, before administration; for Intraocular pressure of guinea pigs (mmHg) D0 / Intraocular pressure of guinea pigs (mmHg) D7 / Intraocular pressure of guinea pigs (mmHg) D14 / Intraocular pressure of guinea pigs (mmHg) D21 / Intraocular pressure of guinea pigs (mmHg) D28: 50 µL/eye (compounds and fluorometholone 1 mg/mL, loteprednol 5 mg/mL)
Method: Pharmacological Example 9: Experiment on Adverse Reactions of Continuous Ocular Administration in Guinea Pigs
Test samples: Compounds 17 and 23 were prepared as 5 mg/5 mL ophthalmic suspensions with reference to the formulation of Fluorometholone Eye Drops, and stored at room temperature protected from light until use.
Positive control drug: Fluorometholone Eye Drops (specification: 5 mL/5 mg; Santen Pharmaceutical (CHINA) Co., Ltd.; Lot No.: 1FM6545), Loteprednol Etabonate Eye Drops (specification 0.5% (5 mg/mL); Shandong Bausch & Lomb Freda Pharmaceutical Co., Ltd; Lot No. 386521), stored at room temperature protected from light until use.
Animals: 50 guinea pigs, conventional grade, with an equal number of males and females, weighing 300-350 g..
Animal grouping: After 5 days of adaptive feeding, the guinea pigs were randomly divided into 5 groups based on body weight. Group 1 was the blank control group, and 50 µL of normal saline was dropped into the eyes (bilateral) of the guinea pigs. Groups 2 to 5 were the fluorometholone group, loteprednol group, compound 17 group, and compound 23 group, respectively, and the corresponding drugs were dropped into the eyes (bilateral) of the guinea pigs. Table 19. Animal grouping and drug administration dosages for the experiment on adverse reactions of continuous ocular administration in guinea pigs
Intraocular pressure measurement time: The intraocular pressure of animals in each group was measured before administration and on days 7, 14, 21, and 28 post-administration.

[4] = system: dry eye syndrome model New Zealand rabbits; experiment: Dry eye syndrome experiment (benzalkonium chloride model): tear secretion test with phenol red cotton threads; type: in vivo, male New Zealand White rabbits
asthma model mice = experiment: Anti-asthma pharmacodynamic experiment: airway hyperresponsiveness (Penh) after methacholine challenge; type: in vivo, female BALB/c mice; settings: for Penh values in mice, Methacholine concentration (mg/ml) 0 / Penh values in mice, Methacholine concentration (mg/ml) 6.25 / Penh values in mice, Methacholine concentration (mg/ml) 12.5: 0.3 mg/mL, 50 µL intratracheally once daily for 3 days; for Penh values in mice, Methacholine concentration (mg/ml) 0: methacholine 0 mg/ml; for Penh values in mice, Methacholine concentration (mg/ml) 6.25: methacholine 6.25 mg/ml; for Penh values in mice, Methacholine concentration (mg/ml) 12.5: methacholine 12.5 mg/ml
[5] = system: inflammatory cytokines IL-6 and IL-12; experiment: Anti-asthma pharmacodynamic experiment: inflammatory cytokines in bronchoalveolar lavage fluid (ELISA); type: in vivo, female BALB/c mice; settings: for IL-6 / IL-12: bronchoalveolar lavage fluid, 0.3 mg/mL, 50 µL intratracheally once daily for 3 days
Method: Pharmacological Example 4: Pharmacodynamic Experiment on Anti-Asthma
The suspensions were stored at room temperature protected from light until use.
Positive control drug: Budesonide Suspension for Inhalation (specification: 2 mL: 1 mg; AstraZeneca Inc.; Lot No. : 327392) was diluted with injection-grade sodium chloride solution to 0.3 mg/ml as the positive control drug, and stored at room temperature protected from light until use.
Sixty female BALB/c mice underwent a one-week adaptive feeding period. Ten mice were randomly selected as the blank control group, while 50 mice were selected to establish asthma models.
From days 21 to 23 after sensitization, the mice in the model group and drug administration group were exposed to a 30-minute aerosol challenge with 5% OVA, while the mice in the blank control group were exposed to normal saline aerosol for the same duration.
At the end of airway hyperresponsiveness testing in mice, the mice were euthanized by cervical dislocation and fixed on a dissection tray. The abdomens and thoracic cavities of the mice were opened, and the skin and excess tissues of the neck were excised to expose the trachea of the mice. A small incision was made transversely on the trachea with a small scissors. A pre-treated 1 mL syringe needle was inserted and fastened with surgical thread. A 1 mL syringe was used to slowly inject 0.5 mL of pre-chilled phosphate-buffered saline (PBS) into the lungs of the mice, followed by slow aspiration. Each mouse was lavaged once, and a total of approximately 0.4 ml of lavage fluid was collected. The bronchoalveolar lavage fluid was centrifuged at 3000 rpm for 5 min. After centrifugation, the supernatant was aliquoted, and the levels of inflammatory cytokines IL-6 and IL-12 in the bronchoalveolar lavage fluid were determined using ELISA kits.
as §6

[6] = target: T1, progesterone receptor (PR) (Homo sapiens, UniProt P06401); experiment: Assay for agonist activity on progesterone receptor (luciferase reporter, HEK293 cells transfected with pBIND-PR plasmid); type: cell-based; settings: EC50 of agonist activity, HEK293 reporter cells, top concentration 50 µM; read-out: Nuclear receptor enzyme activity (nM) PR
T1 sequence (P06401 678-933): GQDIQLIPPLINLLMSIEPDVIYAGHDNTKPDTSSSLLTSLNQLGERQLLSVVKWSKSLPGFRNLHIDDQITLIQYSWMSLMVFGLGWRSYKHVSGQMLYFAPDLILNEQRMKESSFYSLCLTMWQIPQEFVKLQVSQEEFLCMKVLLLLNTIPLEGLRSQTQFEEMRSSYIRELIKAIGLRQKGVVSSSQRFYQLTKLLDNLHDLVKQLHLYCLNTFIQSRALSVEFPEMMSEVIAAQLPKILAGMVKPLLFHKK
Method: (§1) Pharmacological Example 2: Assay for Agonist Activity on Mineralocorticoid Receptor (MR) and Progesterone Receptor (PR)
(§2) Test compound stock solutions: The test compounds (compounds 4, 5, 7, 8, 9, 11, 13, 16, 17, 18, 22, 23, 24, 34, 35, 36, 38, 41, 45, 47, 53, 55, and 59) were accurately weighed, dissolved in DMSO to prepare stock solutions at a concentration of 20 mM, and stored at -20 °C.
(§3) The test compounds were subjected to a 4-fold serial dilution starting from an initial concentration of 50 µ M, generating a 12-point concentration gradient with duplicate wells for each concentration. The blank control consisted of 0.1% DMSO.
(§4) The HEK293 stable cell lines […] transfected with mineralocorticoid receptor (MR) and progesterone receptor (PR) (ICE Bioscience, Lot No. TYP-20220819, TPJ-20220812) were cultured in Dulbecco's Modified Eagle Medium (DMEM) supplemented with 10% fetal bovine serum (FBS) and 200 µ g/ml Hygromycin B in a cell incubator containing 5% CO2 at 37 °C. The spent medium was aspirated, and the cells were washed once with phosphate-buffered saline (PBS). Then, 1 mL of TrypLE™ Express solution was added, and the cells were incubated at 37 °C for approximately 2 min. When the cells detached from the bottom of the cell culture dish, approximately 5 mL of pre-warmed complete medium at 37 °C was added. The cell suspension was gently pipetted with a pipette to dissociate clumped cells. The cell suspension was transferred to a sterile centrifuge tube and centrifuged at 1000 rpm for 5 min to pellet the cells for experiments or subculture..
(§5) HEK293 cells were digested and seeded into 6-cm culture dishes. The pBIND-MR and pBIND-PR plasmids were separately transfected into the HEK293 cells using a transfection reagent, resulting in HEK293 cells successfully transfected with the pBIND-MR and pBIND-PR plasmids, respectively. The cells were resuspended in phenol red-free DMEM medium containing 5% charcoal-stripped serum, counted, and then seeded into 96-well plates. The test compounds were added, and the plates were then incubated in an incubator. The luminescence signal values were measured using a multimode microplate reader following the instructions of the luciferase assay kit. The EC50 values of each test compound were calculated using the nonlinear fitting formula with GraphPad Prism 8.0 software.

[7] = target: T2, mineralocorticoid receptor (MR) (Homo sapiens, UniProt P08235); experiment: Assay for agonist activity on mineralocorticoid receptor (luciferase reporter, HEK293 cells transfected with pBIND-MR plasmid); type: cell-based; settings: EC50 of agonist activity, HEK293 reporter cells, top concentration 50 µM; read-out: Nuclear receptor enzyme activity (nM) MR
T2 sequence (P08235 726-984): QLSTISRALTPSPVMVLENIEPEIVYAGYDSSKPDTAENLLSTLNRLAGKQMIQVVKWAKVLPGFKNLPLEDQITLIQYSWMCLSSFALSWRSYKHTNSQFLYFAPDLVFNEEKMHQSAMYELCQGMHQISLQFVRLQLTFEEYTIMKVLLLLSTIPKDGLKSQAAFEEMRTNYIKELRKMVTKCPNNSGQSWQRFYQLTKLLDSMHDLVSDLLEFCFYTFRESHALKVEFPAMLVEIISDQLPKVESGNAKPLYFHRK
Method: as §1, §2, §3, §4, §5

[8] = D3, 1 mg/mL, 50 µL/eye, 3 times a day for 14 days
[9] = D7, 1 mg/mL, 50 µL/eye, 3 times a day for 14 days
[10] = D15, 1 mg/mL, 50 µL/eye, 3 times a day for 14 days

Row | Compound | intraocular pressure after continuous ocular administration [3] | Intraocular pressure of guinea pigs (mmHg) D0 [3] | Intraocular pressure of guinea pigs (mmHg) D7 [3] | Intraocular pressure of guinea pigs (mmHg) D14 [3] | Intraocular pressure of guinea pigs (mmHg) D21 [3] | Intraocular pressure of guinea pigs (mmHg) D28 [3] | Penh values in mice, Methacholine concentration (mg/ml) 0 (asthma model mice) | Penh values in mice, Methacholine concentration (mg/ml) 6.25 (asthma model mice) | Penh values in mice, Methacholine concentration (mg/ml) 12.5 (asthma model mice) | IL-6 [5] | IL-12 [5] | other results
1 | CC(=O)[C@@]1(O)CC[C@H]2[C@@H]3C[C@H](C)C4=CC(=O)C=C[C@]4(C)[C@@]3(F)[C@@H](O)C[C@@]21C [Fluorometholone, reference compound] | intraocular pressure elevation was detected on day 7 | 14.3 ± 1.5 mmHg | 20.5 ± 3.3 mmHg | 21.2 ± 2.1 mmHg | 23.0 ± 3.1 mmHg | 22.5 ± 2.1 mmHg |  |  |  |  |  | Tear film break-up time (s) D3 [1, 8]: 43.17 ± 14.47 s; Tear film break-up time (s) D7 [1, 9]: 47.33 ± 16.37 s; Tear film break-up time (s) D15 [1, 10]: 51.33 ± 13.44" s; tear film break-up time ([1]; compared with the model group): significantly increased the tear film break-up time on day 15; Corneal fluorescein sodium staining score D3 [2, 8]: 1.67 ± 0.82; Corneal fluorescein sodium staining score D7 [2, 9]: 1.17 ± 0.41; Corneal fluorescein sodium staining score D15 [2, 10]: 1.0 ± 0; inflammatory response on the ocular surface / ocular symptoms ([2]; compared with the model group): significantly inhibited the inflammatory response on the ocular surface on day 15; Ocular pathological score (uveitis model rats; 1 mg/mL, 40 µL/eye, 3 times a day for 2 days): 7.1 ± 0.7; ocular abnormalities / ocular pathological score (uveitis model rats; compared with the model group): significantly improved the ocular abnormalities and reduced the ocular pathological score; Wetting length of phenol red cotton threads (mm) D0 ([4]; D0, 1 mg/mL, 50 µL/eye, 3 times a day for 14 days): 26.35 ± 5.52 mm; Wetting length of phenol red cotton threads (mm) D3 [4, 8]: 29.45 ± 5.48' mm; Wetting length of phenol red cotton threads (mm) D7 [4, 9]: 30.41 ± 5.29" mm; Wetting length of phenol red cotton threads (mm) D15 [4, 10]: 32.26 ± 3.69 mm; tear secretion ([4]; compared with the model group): significantly increased the tear secretion on day 15
2 | CCOC(=O)O[C@]1(C(=O)OCCl)CC[C@H]2[C@@H]3CCC4=CC(=O)C=C[C@]4(C)[C@H]3[C@@H](O)C[C@@]21C [Loteprednol, Loteprednol Etabonate, reference compound] | intraocular pressure elevation was detected on day 7 | 14.0 ± 1.8 mmHg | 19.0 ± 3.5 mmHg | 18.5 ± 1.5 mmHg | 18.5 ± 0.7 mmHg | 19.5 ± 0.6 mmHg |  |  |  |  |  | 
3 | CCCC1O[C@@H]2C[C@H]3[C@@H]4CCC5=CC(=O)C=C[C@]5(C)[C@H]4[C@@H](O)C[C@]3(C)[C@]2(C(=O)CO)O1 (some centres unmarked) [Budesonide, reference compound] |  |  |  |  |  |  | 1.12 ± 0.30 | 1.65 ± 0.29 | 2.14 ± 0.38 | 21.5 ± 6.8 pg/mL | 17.5 ± 4.9 pg/mL | 
4 | C[C@]12C=CC(=O)C=C1[C@@H](F)C[C@H]1[C@@H]3C[C@H]4OC(c5ccc(CSC6COC(=O)C6)cc5)O[C@@]4(C(=O)CO)[C@@]3(C)C[C@H](O)[C@@]12F (stereo partly drawn) [Compound 11, (2S,6aS,6bR,7S,8aS,8bS,11aR,12aS,12bS)-2,6b-Difluoro-7-hydroxy-8b-(2-hydroxyacetyl)-6a,8a-dimethyl-10-(4-(((5-oxotetrahydrofuran-3-yl)thio)methyl)phenyl)-1,2,6a,6b,7,8,8a,8b,11a,12,12a, 12b-dodecahydro-4H-naphtho[2',1':4,5]indeno[1,2-d][1,3]dioxol-4-one] |  |  |  |  |  |  | 1.08 ± 0.18 | 1.45 ± 0.31 | 1.92 ± 0.34 | 16.3 ± 7.9 pg/mL | 11.1 ± 3.7 pg/mL | EC50 [6]: > 50000 nM; Effects on airway hyperresponsiveness (Penh values) in mice (asthma model mice; compared with the model group): significantly decreased the Penh values in mice; EC50 [7]: > 50000 nM; Effects on inflammatory cytokines in bronchoalveolar lavage fluid of mice ([5]; compared with the model group): extremely significantly decreased the levels of IL-6 and IL-12 in mice
